Measured values from ChEMBL document CHEMBL3132854, “Synthesis and anticancer activity evaluation of resveratrolchalcone conjugates” (2014).

Assays:
[1] = tested on: LOX IMVI; experiment: Growth inhibition of human LOXIMVI cells assessed as cell growth at 10 uM by sulforhodamine B assay relative to control; values are per cent of control
[2] = tested on: SW-620; experiment: Growth inhibition of human SW620 cells assessed as cell growth at 10 uM by sulforhodamine B assay relative to control; values are per cent of control
[3] = tested on: NCI-H23; experiment: Growth inhibition of human NCI-H23 cells assessed as cell growth at 10 uM by sulforhodamine B assay relative to control; values are per cent of control
[4] = tested on: SK-MEL-28; experiment: Growth inhibition of human SK-MEL-28 cells assessed as cell growth at 10 uM by sulforhodamine B assay relative to control; values are per cent of control
[5] = tested on: MDA-MB-468; experiment: Growth inhibition of human MDA-MB-468 cells assessed as cell growth at 10 uM by sulforhodamine B assay relative to control; values are per cent of control
[6] = tested on: MOLT-4; experiment: Growth inhibition of human MOLT4 cells assessed as cell growth at 10 uM by sulforhodamine B assay relative to control; values are per cent of control
[7] = tested on: PC-3; experiment: Growth inhibition of human PC3 cells assessed as cell growth at 10 uM by sulforhodamine B assay relative to control; values are per cent of control
[8] = Growth inhibition of human NCI-ADR-RES cells assessed as cell growth at 10 uM by sulforhodamine B assay relative to control; values are per cent of control
[9] = tested on: OVCAR-8; experiment: Growth inhibition of human OVCAR8 cells assessed as cell growth at 10 uM by sulforhodamine B assay relative to control; values are per cent of control
[10] = tested on: RPMI-8226; experiment: Growth inhibition of human RPMI8226 cells assessed as cell growth at 10 uM by sulforhodamine B assay relative to control; values are per cent of control
[11] = Growth inhibition of human HCC2998 cells assessed as cell growth at 10 uM by sulforhodamine B assay relative to control; values are per cent of control; settings: HCC 2998
[12] = tested on: 786-0; experiment: Growth inhibition of human 786-0 cells assessed as cell growth at 10 uM by sulforhodamine B assay relative to control; values are per cent of control
[13] = tested on: OVCAR-3; experiment: Growth inhibition of human OVCAR3 cells assessed as cell growth at 10 uM by sulforhodamine B assay relative to control; values are per cent of control
[14] = tested on: HL-60(TB); experiment: Growth inhibition of human HL-60(TB) cells assessed as cell growth at 10 uM by sulforhodamine B assay relative to control; assay type: functional; settings: values are per cent of control
[15] = tested on: MDA-MB-231; experiment: Growth inhibition of human MDA-MB-231 cells assessed as cell growth at 10 uM by sulforhodamine B assay relative to control; values are per cent of control
[16] = tested on: KM12; experiment: Growth inhibition of human KM12 cells assessed as cell growth at 10 uM by sulforhodamine B assay relative to control; values are per cent of control
[17] = tested on: CAKI-1; experiment: Growth inhibition of human CAKI-1 cells assessed as cell growth at 10 uM by sulforhodamine B assay relative to control; values are per cent of control
[18] = tested on: SF-295; experiment: Growth inhibition of human SF295 cells assessed as cell growth at 10 uM by sulforhodamine B assay relative to control; values are per cent of control
[19] = Growth inhibition of human RXF393 cells assessed as cell growth at 10 uM by sulforhodamine B assay relative to control; values are per cent of control; settings: RXF 393
[20] = tested on: HOP-62; experiment: Growth inhibition of human HOP62 cells assessed as cell growth at 10 uM by sulforhodamine B assay relative to control; values are per cent of control
[21] = tested on: HCT-15; experiment: Growth inhibition of human HCT15 cells assessed as cell growth at 10 uM by sulforhodamine B assay relative to control; values are per cent of control
[22] = tested on: NCI-H226; experiment: Growth inhibition of human NCI-H226 cells assessed as cell growth at 10 uM by sulforhodamine B assay relative to control; values are per cent of control
[23] = tested on: U-251; experiment: Growth inhibition of human U251 cells assessed as cell growth at 10 uM by sulforhodamine B assay relative to control; values are per cent of control
[24] = tested on: M14; experiment: Growth inhibition of human M14 cells assessed as cell growth at 10 uM by sulforhodamine B assay relative to control; values are per cent of control
[25] = Growth inhibition of human UACC257 cells assessed as cell growth at 10 uM by sulforhodamine B assay relative to control; values are per cent of control; settings: UACC-257
[26] = Growth inhibition of human UO31 cells assessed as cell growth at 10 uM by sulforhodamine B assay relative to control; values are per cent of control; settings: UO-31
[27] = tested on: CCRF-CEM; experiment: Growth inhibition of human CCRF-CEM cells assessed as cell growth at 10 uM by sulforhodamine B assay relative to control; assay type: functional; settings: values are per cent of control
[28] = tested on: NCI-H322M; experiment: Growth inhibition of human NCI-H322M cells assessed as cell growth at 10 uM by sulforhodamine B assay relative to control; values are per cent of control
[29] = tested on: SNB-75; experiment: Growth inhibition of human SNB75 cells assessed as cell growth at 10 uM by sulforhodamine B assay relative to control; values are per cent of control
[30] = tested on: MCF7; experiment: Growth inhibition of human MCF7 cells assessed as cell growth at 10 uM by sulforhodamine B assay relative to control; values are per cent of control
[31] = tested on: SK-MEL-5; experiment: Growth inhibition of human SK-MEL-5 cells assessed as cell growth at 10 uM by sulforhodamine B assay relative to control; values are per cent of control

Row | SMILES | growth, % of control at 10 µM [1] [%] | growth, % of control at 10 µM [2] [%] | growth, % of control at 10 µM [3] [%] | growth, % of control at 10 µM [4] [%] | growth, % of control at 10 µM [5] [%] | growth, % of control at 10 µM [6] [%] | growth, % of control at 10 µM [7] [%] | growth, % of control at 10 µM [8] [%] | growth, % of control at 10 µM [9] [%] | growth, % of control at 10 µM [10] [%] | growth, % of control at 10 µM [11] [%] | growth, % of control at 10 µM [12] [%] | growth, % of control at 10 µM [13] [%] | growth, % of control at 10 µM [14] [%] | growth, % of control at 10 µM [15] [%] | growth, % of control at 10 µM [16] [%] | growth, % of control at 10 µM [17] [%] | growth, % of control at 10 µM [18] [%] | growth, % of control at 10 µM [19] [%] | growth, % of control at 10 µM [20] [%] | also measured
1 | COc1ccc(/C=C/c2ccc(/C=C/C(=O)c3ccc(Cl)cc3)cc2)cc1 | 95 | 102 | 100 | 112 | 113 | 92.5 | 108 | 109 | 109 | 99.2 | 99.9 | 91 | 101 | 92.2 | 117 | 96.3 | 92.4 | 87 | 115 | 105 | growth, % of control at 10 µM [21]: 101%; growth, % of control at 10 µM [22]: 112%; growth, % of control at 10 µM [23]: 99.7%; growth, % of control at 10 µM [24]: 104%; growth, % of control at 10 µM [25]: 101%; growth, % of control at 10 µM [26]: 80.7%; growth, % of control at 10 µM [27]: 97.2%; growth, % of control at 10 µM [28]: 97%; growth, % of control at 10 µM [29]: 100%; growth, % of control at 10 µM [30]: 89.5%; growth, % of control at 10 µM [31]: 107%
2 | COc1ccc(C(=O)/C=C/c2ccc(/C=C/c3ccc(F)cc3)cc2)cc1 | 97.4 | 104 | 98.1 | 112 | 112 | 96.2 | 106 | 96.1 | 106 | 104 | 94.1 | 95.3 | 112 | 101 | 116 | 104 | 91.2 | 94.9 | 117 | 120 | growth, % of control at 10 µM [21]: 102%; growth, % of control at 10 µM [22]: 109%; growth, % of control at 10 µM [23]: 100%; growth, % of control at 10 µM [24]: 95.2%; growth, % of control at 10 µM [25]: 101%; growth, % of control at 10 µM [26]: 94.4%; growth, % of control at 10 µM [27]: 104%; growth, % of control at 10 µM [28]: 99.6%; growth, % of control at 10 µM [29]: 104%; growth, % of control at 10 µM [30]: 93.9%; growth, % of control at 10 µM [31]: 104%
3 | COc1ccc(C(=O)/C=C/c2ccc(/C=C/c3ccc(Cl)cc3)cc2)cc1 | 105 | 99.8 | 103 | 104 | 110 | 92.6 | 98.7 | 111 | 104 | 102 | 105 | 94 | 101 | 94.4 | 103 | 100 | 93.9 | 96.5 | 116 | 101 | growth, % of control at 10 µM [21]: 90.1%; growth, % of control at 10 µM [22]: 101%; growth, % of control at 10 µM [23]: 101%; growth, % of control at 10 µM [24]: 101%; growth, % of control at 10 µM [25]: 100%; growth, % of control at 10 µM [26]: 102%; growth, % of control at 10 µM [27]: 97.7%; growth, % of control at 10 µM [28]: 76.6%; growth, % of control at 10 µM [29]: 97.2%; growth, % of control at 10 µM [30]: 93%; growth, % of control at 10 µM [31]: 106%
4 | COc1ccc(C(=O)/C=C/c2ccc(/C=C/c3cc(OC)c(OC)c(OC)c3)cc2)cc1 | 24.7 | 39.3 | 43.5 | 84.7 | 51.9 | 9.62 | 52.2 | 50 | 28.4 | -0.63 | 94.1 | 67.8 | 41.4 | 21.5 | 76.8 | 29.2 | 74.4 | 57.9 | 71.3 | 71 | growth, % of control at 10 µM [21]: 33.6%; growth, % of control at 10 µM [22]: 72.4%; growth, % of control at 10 µM [23]: 36.3%; growth, % of control at 10 µM [24]: 67%; growth, % of control at 10 µM [25]: 72.5%; growth, % of control at 10 µM [26]: 40.5%; growth, % of control at 10 µM [27]: 19.6%; growth, % of control at 10 µM [28]: 64.8%; growth, % of control at 10 µM [29]: 59.8%; growth, % of control at 10 µM [30]: 30.6%; growth, % of control at 10 µM [31]: 62%
